Values after ≈ are worked out from the molar mass of the structure shown.
Assays:
[1] = test system: Colon 26 Advanced, Metastatic Tumor; experiment: Murine Colon 26 advanced, metastatic tumor, increase in mean life span; format: in vivo, CD2F1 mice; settings: days 5,9,13
Experimental: (§1) CD2F1 mice are injected i.p. with 5 x 10^5 tumor cells on Day 0 of the test. Drugs are administered i.p. on Days 5, 9, and 13 after the tumor implantation. Positive drug response is indicated by a more than 25% increase in the mean life span (% ILS), relative to placebo treated controls. Drugs are considered to be toxic when the mean life span of the drug treated animals is more than 15% shorter than placebo treated controls.

[2] = test system: A2780 S cells; experiment: Two cell line test procedure, in vitro cytotoxicity (sulforhodamine B), A2780 S; format: cell-based; settings: Homo sapiens, A2780S, 48 hours exposure
Experimental: (§2) A2780 S and A2780 DDP cells [Biochemical and Molecular Properties of Cisplatin-resistant A2780 Cells Grown in Folinic Acid; Y. Lu, J. Hnan, and K. Scanlon, J. Biol. Chem., 263, 4891-4894, 1988.] are grown in RPMI 1640 medium containing 5% fetal calf serum, 50 µg/ml streptomycin, 50 units/ml penicillin, 50 µg/ml gentamycin, 0.03% L-glutamine, 1 nM estradiol, 1 nM testosterone, 5 µg/ml insulin, 5 µg/ml transferrin, and 5 ng/ml selenous acid, at 37°C, in a humidified atmosphere, containing 5% CO2. Experiments are done in the same media.
(§3) Cells are plated at the concentration of 5 x 10^4/ml on Day 0 of the experiment. On Day one cells are fixed with trichloroacetic acid and 5 ten-fold dilutions of tested compounds are added, in duplicates, to the remaining cells. On Day 3 (48 hours exposure to drugs) all cells are fixed with trichloroacetic acid, stained with 0.4% sulforhodamine B, and absorbency is read at 520 nm. The IC50 (concentration causing 50% inhibition) are determined for each drug.

[3] = test system: A2780 DDP cells; experiment: Two cell line test procedure, in vitro cytotoxicity (sulforhodamine B), A2780 DDP; format: cell-based; settings: Homo sapiens; A2780 DDP cells (cisplatin-resistant), 48 hours exposure
Experimental: as §2, §3

[4] = test system: P388 Leukemia; experiment: Murine P388 leukemia, increase in mean life span; format: in vivo, CD2F1 mice; settings: days 1,5,9
Experimental: as §1, with “with 1” for “with 5”, “x 10^6” for “x 10^5”, “Days 1,” for “Days”, “5,” for “5, 9,”, “and 9” for “and 13”

[5] = test system: P388; settings: literature report; cited from earlier work

| SMILES | IC50 [2] | % ILS ([1]; COLON 26, dose 100 mg/kg i.p.) | % ILS ([1]; COLON 26, dose 200 mg/kg i.p.) | % ILS ([1]; COLON 26, dose 300 mg/kg i.p.) | IC50 [3] | % ILS ([4]; P388, dose 50 mg/kg i.p.) | % ILS ([4]; P388, dose 100 mg/kg i.p.) | % ILS ([4]; P388, dose 200 mg/kg i.p.) | other results |
| --- | --- | --- | --- | --- | --- | --- | --- | --- | --- |
| COc1cccc2c1C(=O)c1c(O)c3c(c(O)c1C2=O)C[C@@](O)(C(=O)CO)C[C@@H]3O[C@H]1C[C@H](N)[C@H](O)[C@H](C)O1 [Adriamycin, reference compound] | – | – | – | – | – | – | – | – | % ILS ([1]; COLON 26, dose 4 mg/kg i.p.): +70% |
| CN(C)CCNC(=O)c1cccn2c(=O)c3cc(-c4cccnc4)ccc3nc12 [Example 06, N-[2-(Dimethylamino)ethyl]-11-oxo-2-(3-pyridinyl)-11H-Pyrido-[2,1-b]quinazoline-6-carboxamide] | 0.9 µg/mL (≈ 2.32 µM) | +9% | +15% | +21% | 5 µg/mL (≈ 12.9 µM) | +16% | +22% | +47% | – |
| CN(C)CCNC(=O)c1cccn2c(=O)c3cc(-c4ccncc4)ccc3nc12 [Example 07, N-[2-(Dimethylamino)ethyl]-11-oxo-2-(4-pyridinyl)-11H-pyrido-[2,1-b]quinazoline-6-carboxamide] | 0.7 µg/mL (≈ 1.81 µM) | -15% | -52% | -58% | 5.6 µg/mL (≈ 14.5 µM) | +20% | +29% | +49% | – |
| O=C(NCCN1CCCC1)c1cccn2c(=O)c3cc(-c4ccncc4)ccc3nc12 [Example 08, 11-Oxo-2-(4-pyridinyl)-N-[2-(1-pyrrolidinyl)ethyl]-11H-pyrido-[2,1-b]quinazoline-6-carboxamide] | 0.8 µg/mL (≈ 1.93 µM) | – | – | – | 3.7 µg/mL (≈ 8.95 µM) | – | – | – | – |
| CN(C)CCNC(=O)c1cccn2c(=O)c3cc(-c4cnc5ccccc5c4)ccc3nc12 [Example 10, N-[2-(Dimethylamino)ethyl]-11-oxo-2-(3-quinolinyl)-11H-pyrido[2,1-b]quinazoline-6-carboxamide] | 4.5 µg/mL (≈ 10.3 µM) | – | – | – | 5.3 µg/mL (≈ 12.1 µM) | – | – | – | – |
| CN(C)CCNC(=O)c1cccn2c(=O)c3ccc(-c4cccnc4)cc3nc12 [Example 15, N-[2-(Dimethylamino)ethyl]-11-oxo-3-(3-pyridinyl)-11H-pyrido-[2,1-b]quinazoline-6-carboxamide] | 0.6 µg/mL (≈ 1.55 µM) | +15% | +64% | -3% | 0.7 µg/mL (≈ 1.81 µM) | +8% | +18% | +37% | – |
| CN(C)CCNC(=O)c1cccn2c(=O)c3ccc(-c4ccncc4)cc3nc12 [Example 16, N-[2-(Dimethylamino)ethyl]-11-oxo-3-(4-pyridinyl)-11H-pyrido-[2,1-b]quinazoline-6-carboxamide] | 7 µg/mL (≈ 18.1 µM) | – | – | – | 8.6 µg/mL (≈ 22.2 µM) | – | – | – | – |
| CN(C)CCNC(=O)c1cccn2c(=O)c3ccccc3nc12 [I, N-[2-(dimethylamino)ethyl]-11-oxo-11H-pyrido[2,1-b]quinalzoline-6-carboxamide] | – | – | – | – | – | – | – | – | activity in a P388 mouse model [5]: inactive |
| CC[C@]1(O)C[C@H]2CN(CCc3c([nH]c4ccccc34)[C@@](C(=O)OC)(c3cc4c(cc3OC)N(C=O)[C@H]3[C@@](O)(C(=O)OC)[C@H](OC(C)=O)[C@]5(CC)C=CCN6CC[C@]43[C@@H]65)C2)C1 [Vincristine, reference compound] | – | – | – | – | – | – | – | – | % ILS ([4]; P388, dose 0.8 mg/kg i.p.): +114% |

From patent EP0944628B1, “HETERO-BIARYL-PYRIDOQUINAZOLINONE DERIVATIVES AS ANTI-CANCER AGENTS” (American Cyanamid Company, priority 1996, dated 1998)
